Reference: patent US20230123334A1, “AMINO LIPID COMPOUND, PREPARATION METHOD THEREFOR, AND APPLICATION THEREOF” (SHENZHEN SHENXIN BIOTECHNOLOGY CO., LTD., priority 2020, published 2023)

test system: HEK293 cells; test: Preliminary screening as DNA vectors, GFP transfection of HEK293 cells; type: cell-based; conditions: HEK293 cells; lipid/DOPE liposome with 75 ng plasmid DNA (psin-EGFP-IRES-Puro); number of cells expressing GFP divided by total number of nuclei (Hoechst)
Method in brief: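 First, amino lipid and DOPE were vortexed in sodium acetate buffer (pH 5.6) to form liposomes. Next, these were held with 75 ng EGFP plasmid at room temperature for 30 min. Finally, HEK293 cells were added, cultured at 37° C., Hoechst-stained, and GFP+/total nuclei scored by imaging.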

| SMILES | Absolute DNA transfection efficiency in HEK293 cells [%] |
| --- | --- |
| CCCCCCCCCCCCN(CCCCCCCCCCCC)c1nc(NCCCCCCCCCCC)nc(NCCN(C)C)n1 [Compound N112N12D1] | 0.7 |

same assay, conditions: amino lipid/DOPE liposome with 75 ng plasmid DNA (psin-EGFP-IRES-Puro); number of GFP-expressing cells divided by total nuclei (Hoechst)

| SMILES | Absolute DNA transfection efficiency in HEK293 cells [%] |
| --- | --- |
| CCCCCCCCSc1nc(NCCCCCC)nc(NCC2CCN(C)CC2)n1 [S8N6 D10] | 0.5 |
| CCCCCCCNc1nc(NCC2CCN(C)CC2)nc(SCCCCCCC)n1 [S7N7 D10] | 8.6 |
| CCCCCCCCCCCCCCCCSc1nc(NCCCCCC)nc(NCCCN2CCOCC2)n1 [S16N6 D8] | 11.6 |
| CCCCCCCCSc1nc(NCCN2CCOCC2)nc(SCCCCCCCC)n1 [S8S8 D2] | 17.6 |
| CCCCCCCSc1nc(NCCCCCC)nc(NCCN(C)C)n1 [S7N6 D1] | 17.6 |
| CCCCCCCCCCCCCCSc1nc(NCCN2CCN(C)CC2)nc(SCCCCCC)n1 [S6S14 D5] | 18.6 |
| CCCCCCCCCCCSc1nc(NCCCN2CCOCC2)nc(SCCCCCCC)n1 [S7S11 D8] | 11.1 |
| CCCCCCCNc1nc(NCC2CCN(C)CC2)nc(SCCCCCC)n1 [S6N7 D10] | 2.9 |
| CCCCCCCCNc1nc(NCCN(C)C)nc(SCCCCCC)n1 [S6N8 D1] | 0.2 |
| CCCCCCCCCCCCCCCCSc1nc(NCCCCCCCCCCC)nc(NCCCN2CCN(C)CC2)n1 [S16N11 D9] | 9.6 |
| CCCCCCCCCCCCSc1nc(NCCN2CCCCC2)nc(SCCCCCCCC)n1 [S8S12 D4] | 10.8 |
| CCCCCCCCCCCCCCCNc1nc(NCCN(CC)CC)nc(SCCCCCCCCC)n1 [S9N15 D7] | 4.6 |
| CCCCCCCCSc1nc(NCCCCCC)nc(NCCN2CCN(C)CC2)n1 [S8N6 D5] | 5.0 |
| CCCCCCCCCCCCCCCCCCNc1nc(NCCCN2CCOCC2)nc(SCCCCCCCCCCCCCCCCCC)n1 [S18N18 D8] | 0.0 |
| CCCCCCCCCCCCSc1nc(NCCCCCCCCCCC)nc(NCCCN2CCOCC2)n1 [S12N11 D8] | 0.0 |
| CCCCCCCCCCCCCCCCSc1nc(NCCCCCCCCCCC)nc(NCCCN2CCOCC2)n1 [S16N11 D8] | 5.0 |
| CCCCCCCCCCCCCCCSc1nc(NCCCCCC)nc(NCCN2CCOCC2)n1 [S15N6 D2] | 34.1 |
| CCCCCCCCCCCCCNc1nc(NCCN2CCOCC2)nc(SCCCCCCCCCCC)n1 [S11N13 D2] | 5.5 |
| CCCCCCCCCCCCCCCNc1nc(NCC2CCN(C)CC2)nc(SCCCCCCCCC)n1 [S9N15 D10] | 19.0 |
| CCCCCCCCCCCCCCCCCCSc1nc(NCCCCCC)nc(NCCN2CCCC2)n1 [S18N6 D3] | 22.1 |
| CCCCCCCCCCCSc1nc(NCCCCCC)nc(NCCCN(C)C)n1 [S11N6 D6] | 29.3 |
| CCCCCCCCCCCCCCCCSc1nc(NCCN2CCOCC2)nc(N(CCCCCCCCCCCC)CCCCCCCCCCCC)n1 [S16^2N12 D2] | 0.0 |
| CCCCCCCCCCCCCCCCCCNc1nc(NCCCN(C)C)nc(SCCCCCCCCCCCCCCC)n1 [S15N18 D6] | 0.3 |
| CCCCCCSc1nc(NCCCN2CCOCC2)nc(SCCCCCC)n1 [S6S6 D8] | 0.8 |

| SMILES | Absolute DNA transfection efficiency in HEK293 cells [%] |
| --- | --- |
| CCCCCCCCCCCCCCCSc1nc(NCCCCCCCCCCCC)nc(NCCCN2CCOCC2)n1 [S15N12 D8] | 1.5 |
| CCCCCCCCCCCCCCCCCCNc1nc(NCCCN2CCOCC2)nc(SCCCCCCCCCCCCCCC)n1 [S15N18 D8] | 0.3 |
| CCCCCCCCCCCSc1nc(NCCCCCCCCC)nc(NCCCN2CCN(C)CC2)n1 [S11N9 D9] | 22.4 |
| CCCCCCCCCCCCCCCSc1nc(NCCCCCCCCCCC)nc(NCCN(C)C)n1 [S15N11 D1] | 12.9 |
| CCCCCCCCCCCNc1nc(NCCN2CCCC2)nc(SCCCCCCCCCCC)n1 [S11N11 D3] | 23.4 |
| CCCCCCCCNc1nc(NCCCN2CCN(C)CC2)nc(SCCCCCCCC)n1 [S8N8 D9] | 7.4 |
| CCCCCCCCCCCSc1nc(NCCCN(C)C)nc(SCCCCCC)n1 [S6S11 D6] | 32.1 |
| CCCCCCCCCCCCCCCNc1nc(NCCN2CCN(C)CC2)nc(SCCCCCCCC)n1 [S8N15 D5] | 10.4 |
| CCCCCCCCCCCCCCCCCCSc1nc(NCCN2CCOCC2)nc(SCCCCCC)n1 [S6S18 D2] | 8.1 |
| CCCCCCCCCCSc1nc(NCCCN2CCN(C)CC2)nc(SCCCCCCCC)n1 [S8S10 D9] | 25.6 |
| CCCCCCCCCCCCNc1nc(NCCN(CC)CC)nc(SCCCCCCCCCCCC)n1 [S12N12 D7] | 3.7 |
| CCCCCCCCCCCCSc1nc(NCCN2CCCCC2)nc(N(CCCCCCCCCCCC)CCCCCCCCCCCC)n1 [S12^2N12 D4] | 0.0 |
| CCCCCCCCCCCCCCCCNc1nc(NCCN(C)C)nc(SCCCCCCCCC)n1 [S9N16 D1] | 19.2 |
| CCCCCCCCCSc1nc(NCCCCCC)nc(NCCCN(C)C)n1 [S9N6 D6] | 8.8 |
| CCCCCCCCCCCCSc1nc(NCCCN2CCN(C)CC2)nc(SCCCCCCC)n1 [S7S12 D9] | 4.8 |
| CCCCCCCCCCCCCNc1nc(NCCN(CC)CC)nc(SCCCCCCCC)n1 [S8N13 D7] | 8.9 |
| CCCCCCCCCCCCCCSc1nc(NCCCCCC)nc(NCCN2CCCCC2)n1 [S14N6 D4] | 2.5 |
| CCCCCCCCCCCCCCCSc1nc(NCCN2CCCCC2)nc(SCCCCCCC)n1 [S7S15 D4] | 11.6 |
| CCCCCCCNc1nc(NCCN2CCN(C)CC2)nc(SCCCCCC)n1 [S6N7 D5] | 3.7 |
| CCCCCCCCCNc1nc(NCCN(C)C)nc(SCCCCCCCCC)n1 [S9N9 D1] | 35.3 |
| CCCCCCCCCCCCCCCSc1nc(NCCCCCCCCCCC)nc(NCCN2CCCC2)n1 [S15N11 D3] | 20.9 |
| CCCCCCCCCCCCCNc1nc(NCCN2CCCCC2)nc(SCCCCCCCCCCCC)n1 [S12N13 D4] | 0.5 |
| CCCCCCCCCCCSc1nc(NCCCN2CCN(C)CC2)nc(SCCCCCCC)n1 [S7S11 D9] | 25.9 |
| CCCCCCCCCCCCNc1nc(NCCN(CC)CC)nc(SCCCCCCCC)n1 [S8N12 D7] | 9.5 |

| SMILES | Absolute DNA transfection efficiency in HEK293 cells [%] |
| --- | --- |
| CCCCCCCCCCCCCCCCCCSc1nc(NCCCCCCC)nc(NCCCN2CCOCC2)n1 [S18N7 D8] | 3.9 |
| CCCCCCCCSc1nc(NCCN2CCN(C)CC2)nc(SCCCCCCCC)n1 [S8S8 D5] | 10.2 |
| CCCCCCCCCCCCCCCCCCNc1nc(NCCN2CCOCC2)nc(SCCCCCCCCCCC)n1 [S11N18 D2] | 2.8 |
| CCCCCCCCCCCCCCCCCCSc1nc(NCCCN2CCOCC2)nc(SCCCCCC)n1 [S6S18 D8] | 15.9 |
| CCCCCCCCCCCCCCCCCCNc1nc(NCC2CCN(C)CC2)nc(SCCCCCCCC)n1 [S8N18 D10] | 9.6 |
| CCCCCCCCCCCCCCCSc1nc(NCCCCCC)nc(NCCCN(C)C)n1 [S15N6 D6] | 34.2 |
| CCCCCCCCCCCCCCCCNc1nc(NCCCN2CCN(C)CC2)nc(SCCCCCCCCC)n1 [S9N16 D9] | 20.3 |
| CCCCCCCCCCCCCCCCSc1nc(NCCCCCCCCCCCC)nc(NCCCN2CCN(C)CC2)n1 [S16N12 D9] | 11.4 |
| CCCCCCCCCCCCCNc1nc(NCC2CCN(C)CC2)nc(SCCCCCCCCCC)n1 [S10N13 D10] | 3.2 |
| CCCCCCCCCCCCCCCSc1nc(NCCCCCCCCC)nc(NCC2CCN(C)CC2)n1 [S15N9 D10] | 35.1 |
| CCCCCCCCCCCCSc1nc(NCCCCCCCC)nc(NCC2CCN(C)CC2)n1 [S12N8 D10] | 16.3 |
| CCCCCCCCCCCCNc1nc(NCCN(CC)CC)nc(SCCCCCCCCCCC)n1 [S11N12 D7] | 9.8 |
| CCCCCCCCCCCCCCCCNc1nc(NCCN2CCCCC2)nc(SCCCCCCCCCCCC)n1 [S12N16 D4] | 0.7 |
| CCCCCCCCCCCCCCSc1nc(NCCN2CCOCC2)nc(N(CCCCCCCCCCCC)CCCCCCCCCCCC)n1 [S14^2N12 D2] | 0.0 |
| CCCCCCCCCCCSc1nc(NCC2CCN(C)CC2)nc(SCCCCCCC)n1 [S7S11 D10] | 39.1 |
| CCCCCCCCCCCCCCCCSc1nc(NCCCCCCCCCCCCCCC)nc(NCCN2CCN(C)CC2)n1 [S16N15 D5] | 0.3 |
| CCCCCCCCCSc1nc(NCCCCCCCC)nc(NCCN2CCCC2)n1 [S9N8 D3] | 37.6 |
| CCCCCCCCCCCCNc1nc(NCCN(C)C)nc(SCCCCCCCCC)n1 [S9N12 D1] | 39.3 |
| CCCCCCCCCCCCCCSc1nc(NCCN(CC)CC)nc(SCCCCCC)n1 [S6S14 D7] | 4.7 |
| CCCCCCCCCNc1nc(NCCN(C)C)nc(SCCCCCCCC)n1 [S8N9 D1] | 33.6 |
| CCCCCCCCCCCCCCCNc1nc(NCCN2CCCC2)nc(SCCCCCCCCCC)n1 [S10N15 D3] | 11.5 |
| CCCCCCCCCCCCCNc1nc(NCCN2CCOCC2)nc(SCCCCCC)n1 [S6N13 D2] | 1.9 |
| CCCCCCCCCNc1nc(NCC2CCN(C)CC2)nc(SCCCCCCC)n1 [S7N9 D10] | 15.0 |
